Assay results from US12576074B2, “Kits and methods for induction of cardioversion in subjects with atrial arrhythmias” (InCarda Therapeutics, Inc., priority 2020, dated 2026).
pEC50, pIC50: −log10 of the molar value. Where “and” joins values, the source holds several entries; their conditions need not be identical. Equal entries are not always repeated. Where two headings read alike, the source gives them in different places.

What was measured:
Sinclair swine [1] = test: Clinical observations and survival in swine; format: in vivo; settings: two animals (one treatment A, one treatment B); deemed due to anesthesia
Description: All animals survived to study completion. Animals underwent clinical observations continuously while the animals are under anesthesia during, pre- and post-dosing through to final blood collection per TXP-1532, Pharmacologic and Toxicological Observations of Experimental Animals, and twice daily per ACL-1974 Receipt, Quarantine and Husbandry of Swine. […] One of the animals in question was during the high-dose treatment (“B”) and was intubated and provided oxygen under the direction of veterinary staff. The other animal was during the low-dose treatment (“A”) and returned to breathing normally without need of additional support. Both of these abnormal events were deemed due to anesthesia.
All animals survived to study completion with no definitive test article clinical observations.

[2] = system: ACh-mediated AF in isolated arterially-perfused canine right atrium; test: Termination of ACh-induced persistent AF in canine isolated coronary-perfused right atrial preparations (Series II); parameters: species or system canine (Beagles); settings: flecainide 1.5 μM, ibutilide 20 nM, ACh 0.5 μM
Procedure: Experiments were performed using isolated arterially-perfused canine preparations consisting of right atrium with a rim of right ventricle. The hearts were from Beagles approximately 1 year of age and were stored in ice cold cardioplegic solution for approximately 40 minutes before experimentation.
During experiments, transmembrane action potential (AP) recordings (sampling rate 41 kHz) were obtained from the atrium and ventricle using floating glass microelectrodes (10-25 MΩ DC resistance). A pseudo-electrocardiogram (ECG) was recorded using two electrodes consisting of Ag/AgCl half cells placed in the Tyrode's solution, bathing the preparation, 1.0 to 1.2 cm from opposite ends of the atrial coronary-perfused preparations (FIG. 1). […] The diastolic threshold of excitation (DTE) was determined by increasing stimulus intensity in 0.01 mA steps starting from 0.1 mA, until a steady 1:1 activation was achieved. Post-repolarization refractoriness (PRR) was recognized when ERP exceeded APD90 in the ventricle and APD70 in atria. Ventricular ERP coincides with APD90, whereas atrial ERP generally coincides with APD70.
Ventricular electrical activity was monitored for the development of early afterdepolarizations (EADs) and torsade de pointes (TdP).
Stock solutions were made by dissolving test article dry powder in distilled water vehicle. […]

Sinclair swine [3] = test: Electrocardiograms after IV infusion in swine
Procedure: After the animals were transferred to study, all animals were randomly assigned to treatment groups per the study design described below. This study was designed as a cross-over design with a minimum of 1-week washout between Treatment “A” and Treatment “B”. […] Electrocardiograms (EKGs) were performed prior to infusion and within 30 minutes of dose completion for both “A” and “B” treatments. Infusions were performed under sedation and anesthesia was maintained post-infusion for the duration of the blood collections. Blood was collected following TABLE 5 below: prior to infusion, halfway through infusion, and at 0, 2, 4, 6, 8, 10, 15, 30, 45, 60, and 120 minutes post-infusion completion for both treatment “A” and “B”.
Swine were sedated with target doses of 0.5 mg/kg of midazolam and 25 mg/kg of ketamine (actual doses ranging from […] and 24.83-25.33 mg/kg, respectively), with the exception of one animal which received half the target doses per veterinary instruction (0.26 mg/kg midazolam and 12.67 mg/kg ketamine). Animals were anesthetized with isoflurane (5% for induction, ˜0.5-3% for maintenance) via face mask inhalation for the duration of the infusion and blood collections. All anesthesia and monitoring of vital parameters were performed in accordance with ACL-2011.
All animals underwent an electrocardiogram (EKG) using the EMKA system. EKGs were collected prior to dosing (any time prior to each dose administration) and within 30 minutes completion of each infusion per TLE-2125, Physiological Data Collection for Large Animals Using the emkaPACK4g Acquisition System. ECG waveforms were quantitatively evaluated for heart rate (HR) and PR, QRS, and QT/QTc intervals using a validated ecgAUTO system (v3.5.5, emka TECHNOLOGIES, Paris, France). • QTcB (Bazett's)=QT/RR(1/2) • QTcF (Fridericia)=QT/RR(1/3) • QTcV (Van de Water)=QT−0.087 (RR−1000) Where RR=time between successive beats, measured in milliseconds.

[4] = system: canine left ventricular wedge preparations; test: Canine left ventricular wedge preparation, repolarization/EAD sensitised (Series III); settings: ibutilide 50 nM 40 min, then flecainide 1.5 μM 30 min added; 3 mM KCl
Procedure: Drugs were administered in the order and concentrations specified in TABLE 4.
Canine left ventricular (LV) wedge preparations were excised from the same hearts used to obtain the right atrial preparations.
Panel A: Control. […] The numbers appearing under M APs indicate APD90 values, and those on the ECG recordings indicate QT interval values.

[5] = cited from earlier work
[6] = molecular target: L-type calcium channels (ICaL), CaV1.2 channels (Homo sapiens, UniProt Q13936); settings: cited from earlier work
L-type calcium channels (ICaL), CaV1.2 channels, sequence (Q13936 whole entry): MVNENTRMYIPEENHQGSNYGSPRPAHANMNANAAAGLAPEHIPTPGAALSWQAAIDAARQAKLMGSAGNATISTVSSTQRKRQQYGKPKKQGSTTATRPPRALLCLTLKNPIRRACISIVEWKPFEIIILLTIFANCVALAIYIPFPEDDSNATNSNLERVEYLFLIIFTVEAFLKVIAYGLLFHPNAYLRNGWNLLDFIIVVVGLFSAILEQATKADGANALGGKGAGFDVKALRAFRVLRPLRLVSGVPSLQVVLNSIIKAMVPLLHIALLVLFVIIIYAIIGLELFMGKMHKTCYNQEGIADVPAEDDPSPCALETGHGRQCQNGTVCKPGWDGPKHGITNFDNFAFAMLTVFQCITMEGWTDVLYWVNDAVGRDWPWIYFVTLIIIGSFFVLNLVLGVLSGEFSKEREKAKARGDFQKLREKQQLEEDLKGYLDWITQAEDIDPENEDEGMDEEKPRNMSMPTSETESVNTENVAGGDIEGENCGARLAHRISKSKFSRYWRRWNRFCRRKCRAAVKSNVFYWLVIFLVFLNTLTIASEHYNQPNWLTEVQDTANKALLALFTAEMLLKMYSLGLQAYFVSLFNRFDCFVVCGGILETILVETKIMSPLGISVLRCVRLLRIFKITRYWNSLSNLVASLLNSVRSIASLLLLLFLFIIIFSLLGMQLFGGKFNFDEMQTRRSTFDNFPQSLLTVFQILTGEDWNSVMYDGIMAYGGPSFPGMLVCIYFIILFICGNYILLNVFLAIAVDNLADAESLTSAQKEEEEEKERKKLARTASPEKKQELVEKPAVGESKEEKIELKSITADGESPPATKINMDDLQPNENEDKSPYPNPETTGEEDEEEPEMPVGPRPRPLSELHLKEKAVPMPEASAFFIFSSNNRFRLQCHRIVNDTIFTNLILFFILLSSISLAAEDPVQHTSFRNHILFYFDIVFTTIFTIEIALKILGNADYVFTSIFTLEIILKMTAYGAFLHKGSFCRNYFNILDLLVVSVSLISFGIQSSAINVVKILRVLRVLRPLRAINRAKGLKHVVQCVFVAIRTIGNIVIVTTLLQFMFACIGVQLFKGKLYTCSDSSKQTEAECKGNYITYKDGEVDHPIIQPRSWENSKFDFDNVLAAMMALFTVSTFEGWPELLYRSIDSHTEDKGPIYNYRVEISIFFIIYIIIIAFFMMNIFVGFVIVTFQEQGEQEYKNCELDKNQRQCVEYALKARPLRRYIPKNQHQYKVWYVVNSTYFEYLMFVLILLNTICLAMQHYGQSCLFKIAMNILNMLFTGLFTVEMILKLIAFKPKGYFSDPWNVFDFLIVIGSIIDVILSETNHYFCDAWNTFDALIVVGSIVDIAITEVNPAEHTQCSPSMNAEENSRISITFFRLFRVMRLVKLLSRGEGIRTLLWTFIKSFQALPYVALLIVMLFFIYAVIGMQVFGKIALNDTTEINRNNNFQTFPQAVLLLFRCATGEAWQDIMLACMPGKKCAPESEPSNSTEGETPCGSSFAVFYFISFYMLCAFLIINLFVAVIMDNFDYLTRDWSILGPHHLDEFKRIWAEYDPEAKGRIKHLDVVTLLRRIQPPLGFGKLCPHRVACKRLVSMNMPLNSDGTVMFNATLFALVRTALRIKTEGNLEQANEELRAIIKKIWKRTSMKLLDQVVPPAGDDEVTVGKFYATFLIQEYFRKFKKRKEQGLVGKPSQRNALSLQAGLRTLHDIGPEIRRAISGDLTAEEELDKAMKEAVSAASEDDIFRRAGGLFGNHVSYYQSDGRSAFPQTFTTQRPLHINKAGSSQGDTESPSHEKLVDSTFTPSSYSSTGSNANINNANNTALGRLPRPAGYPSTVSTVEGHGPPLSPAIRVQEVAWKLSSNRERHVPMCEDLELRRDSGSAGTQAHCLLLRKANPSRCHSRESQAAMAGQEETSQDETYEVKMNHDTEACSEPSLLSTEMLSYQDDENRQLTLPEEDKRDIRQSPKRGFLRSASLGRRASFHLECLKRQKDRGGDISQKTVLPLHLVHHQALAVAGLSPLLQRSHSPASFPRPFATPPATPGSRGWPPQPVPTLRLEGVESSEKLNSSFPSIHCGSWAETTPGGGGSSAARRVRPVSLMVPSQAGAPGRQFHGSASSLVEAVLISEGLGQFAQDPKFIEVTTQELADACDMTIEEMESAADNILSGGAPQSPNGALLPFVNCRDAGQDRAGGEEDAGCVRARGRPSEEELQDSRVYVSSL
L-type calcium channels (ICaL), CaV1.2 channels, sequence (Q08289 whole entry partner): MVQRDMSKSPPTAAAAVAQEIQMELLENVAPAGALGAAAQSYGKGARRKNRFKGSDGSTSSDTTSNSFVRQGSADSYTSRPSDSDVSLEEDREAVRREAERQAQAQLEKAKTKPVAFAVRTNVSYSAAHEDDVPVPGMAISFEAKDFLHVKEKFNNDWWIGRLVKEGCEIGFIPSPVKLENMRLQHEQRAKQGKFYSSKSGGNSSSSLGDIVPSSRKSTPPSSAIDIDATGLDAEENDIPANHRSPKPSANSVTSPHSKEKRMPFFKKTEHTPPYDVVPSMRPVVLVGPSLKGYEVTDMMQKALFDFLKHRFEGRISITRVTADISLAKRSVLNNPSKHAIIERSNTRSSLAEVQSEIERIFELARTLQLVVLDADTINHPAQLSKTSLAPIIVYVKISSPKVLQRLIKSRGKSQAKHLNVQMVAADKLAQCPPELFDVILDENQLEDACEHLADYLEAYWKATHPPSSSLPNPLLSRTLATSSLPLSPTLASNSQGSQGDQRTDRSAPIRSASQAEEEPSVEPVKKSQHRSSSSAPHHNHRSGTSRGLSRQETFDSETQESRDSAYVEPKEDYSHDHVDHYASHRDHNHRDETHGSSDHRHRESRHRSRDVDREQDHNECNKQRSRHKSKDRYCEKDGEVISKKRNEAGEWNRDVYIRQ
L-type calcium channels (ICaL), CaV1.2 channels, sequence (P54289 25-956 partner limits assumed): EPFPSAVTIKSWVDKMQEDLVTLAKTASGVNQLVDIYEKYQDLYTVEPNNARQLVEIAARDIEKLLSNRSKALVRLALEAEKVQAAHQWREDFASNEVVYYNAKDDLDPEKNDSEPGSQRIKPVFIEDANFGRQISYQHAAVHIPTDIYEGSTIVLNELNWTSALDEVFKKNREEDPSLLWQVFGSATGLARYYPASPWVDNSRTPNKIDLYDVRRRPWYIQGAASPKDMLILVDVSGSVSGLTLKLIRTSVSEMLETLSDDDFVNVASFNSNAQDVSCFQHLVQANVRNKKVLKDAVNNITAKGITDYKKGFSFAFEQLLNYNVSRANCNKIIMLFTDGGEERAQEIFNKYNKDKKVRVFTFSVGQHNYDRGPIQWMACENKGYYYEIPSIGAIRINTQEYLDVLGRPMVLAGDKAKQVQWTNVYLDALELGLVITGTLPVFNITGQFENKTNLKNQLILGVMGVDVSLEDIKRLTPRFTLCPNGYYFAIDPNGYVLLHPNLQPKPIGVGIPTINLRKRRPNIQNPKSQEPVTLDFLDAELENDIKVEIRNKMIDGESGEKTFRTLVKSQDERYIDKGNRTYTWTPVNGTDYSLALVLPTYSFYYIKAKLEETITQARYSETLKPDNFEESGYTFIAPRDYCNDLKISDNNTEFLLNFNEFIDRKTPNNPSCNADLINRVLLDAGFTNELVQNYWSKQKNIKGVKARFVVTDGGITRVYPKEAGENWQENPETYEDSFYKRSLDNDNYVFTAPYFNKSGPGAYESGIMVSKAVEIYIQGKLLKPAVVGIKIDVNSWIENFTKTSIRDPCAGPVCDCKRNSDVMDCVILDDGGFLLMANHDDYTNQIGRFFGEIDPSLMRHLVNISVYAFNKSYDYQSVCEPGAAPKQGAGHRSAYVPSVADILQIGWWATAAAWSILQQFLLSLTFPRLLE
L-type calcium channels (ICaL), CaV1.2 channels, sequence (P54289 957-1103 partner limits assumed): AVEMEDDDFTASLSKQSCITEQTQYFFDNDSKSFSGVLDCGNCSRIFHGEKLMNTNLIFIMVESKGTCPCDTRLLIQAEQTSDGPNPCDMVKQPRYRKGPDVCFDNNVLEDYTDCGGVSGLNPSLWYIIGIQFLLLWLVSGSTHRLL

Ito = settings: value used in O'Hara-Rudy model; cited from earlier work
IK1 = molecular target: T1, IK1 (Homo sapiens, UniProt P63252); settings: flecainide increases IK1; used to calculate Gk1; cited from earlier work
T1 sequence (P63252 1-427): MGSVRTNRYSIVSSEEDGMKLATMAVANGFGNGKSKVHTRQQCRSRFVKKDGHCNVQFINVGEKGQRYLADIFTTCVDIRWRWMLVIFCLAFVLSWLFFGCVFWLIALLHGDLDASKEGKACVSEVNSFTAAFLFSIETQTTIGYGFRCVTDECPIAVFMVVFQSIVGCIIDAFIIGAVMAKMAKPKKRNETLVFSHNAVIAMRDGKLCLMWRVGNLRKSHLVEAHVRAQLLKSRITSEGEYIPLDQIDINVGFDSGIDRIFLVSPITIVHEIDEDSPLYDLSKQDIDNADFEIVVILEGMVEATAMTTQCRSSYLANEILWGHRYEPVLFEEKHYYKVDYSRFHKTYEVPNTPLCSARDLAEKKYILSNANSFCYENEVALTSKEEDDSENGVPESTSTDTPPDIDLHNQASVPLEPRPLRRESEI

[7] = molecular target: ryanodine receptor RyR2 (IRyR) (Homo sapiens, UniProt Q92736); settings: cited from earlier work
[8] = molecular target: cardiac voltage-gated sodium channels (Nav1.5 subtype), peak sodium current (Homo sapiens, UniProt Q14524); settings: unbinding from bound sodium channels; cited from earlier work
[9] = system: paroxysmal atrial fibrillation; settings: average population; cited from earlier work
[10] = Treatment A (flecainide 1 mg/kg, ibutilide 0.007 mg/kg or both, IV), individual animal
[11] = Treatment B (flecainide 2 mg/kg, ibutilide 0.014 mg/kg or both, IV), individual animal

Row | SMILES | Avg ATcV, baseline-normalized post-infusion (Sinclair swine [3]; [10]) | Avg HR, baseline-normalized post-infusion (Sinclair swine [3]; [10]) | Avg PR, baseline-normalized post-infusion (Sinclair swine [3]; [10]) | Avg QRS, baseline-normalized post-infusion (Sinclair swine [3]; [10]) | Avg QT, baseline-normalized post-infusion (Sinclair swine [3]; [10]) | Avg QTcB, baseline-normalized post-infusion (Sinclair swine [3]; [10]) | Avg QTcF, baseline-normalized post-infusion (Sinclair swine [3]; [10]) | Avg ATcV, baseline-normalized post-infusion (Sinclair swine [3]; Treatment A, group mean) | Avg HR, baseline-normalized post-infusion (Sinclair swine [3]; Treatment A, group mean) | Avg PR, baseline-normalized post-infusion (Sinclair swine [3]; Treatment A, group mean) | Avg QRS, baseline-normalized post-infusion (Sinclair swine [3]; Treatment A, group mean) | Avg QT, baseline-normalized post-infusion (Sinclair swine [3]; Treatment A, group mean) | Avg QTcB, baseline-normalized post-infusion (Sinclair swine [3]; Treatment A, group mean) | Avg QTcF, baseline-normalized post-infusion (Sinclair swine [3]; Treatment A, group mean) | Avg ATcV, baseline-normalized post-infusion (Sinclair swine [3]; [11]) | Avg HR, baseline-normalized post-infusion (Sinclair swine [3]; [11]) | Avg PR, baseline-normalized post-infusion (Sinclair swine [3]; [11]) | Avg QRS, baseline-normalized post-infusion (Sinclair swine [3]; [11]) | Avg QT, baseline-normalized post-infusion (Sinclair swine [3]; [11]) | Avg QTcB, baseline-normalized post-infusion (Sinclair swine [3]; [11]) | other results
1 | CCCCCCCN(CC)CCCC(O)c1ccc(NS(C)(=O)=O)cc1 (stereo not drawn) [Ibutilide, N-(4-(4-(ethyl(heptyl)amino)-1-hydroxybutyl)phenyl)methanesulfonamide] | 14.4% and 10.5% and 5.0% | −19.5% and −54.7% and −28.7% | 4.8% and 40.7% and 7.1% | 8.2% and 7.3% and 4.9% | 19.9% and 28.1% and 11.7% | 7.5% and −13.4% and −5.8% | 11.5% and −1.4% and −0.3% | 10.0% | −34.3% | 17.5% | 6.8% | 19.9% | −3.9% | 3.3% | 16.1% and 13.1% and 13.6% | −38.3% and −12.7% and −15.4% | 28.2% and 2.9% and 14.7% | 7.7% and 16.8% and 6.5% | 26.6% and 16.3% and 18.3% | −0.6% and 8.5% and 8.9% | abnormal clinical observations (Sinclair swine [1]): stopped breathing under anesthesia; termination of ACh-induced persistent AF (preparations terminated out of tested) [2]: 1 out of 3; Avg QTcF, baseline-normalized post-infusion (Sinclair swine [3]; [11]): 7.8% and 11.0% and 11.9%; Avg ATcV, baseline-normalized post-infusion (Sinclair swine [3]; Treatment B, group mean): 14.3%; Avg HR, baseline-normalized post-infusion (Sinclair swine [3]; Treatment B, group mean): −22.1%; Avg PR, baseline-normalized post-infusion (Sinclair swine [3]; Treatment B, group mean): 15.3%; Avg QRS, baseline-normalized post-infusion (Sinclair swine [3]; Treatment B, group mean): 10.3%; Avg QT, baseline-normalized post-infusion (Sinclair swine [3]; Treatment B, group mean): 20.4%; Avg QTcB, baseline-normalized post-infusion (Sinclair swine [3]; Treatment B, group mean): 5.6%; Avg QTcF, baseline-normalized post-infusion (Sinclair swine [3]; Treatment B, group mean): 10.3%; QT/QTc (QTcV) change post-infusion (Sinclair swine [3]; treatments A/B): increased; effect on repolarization (QT interval, Tpeak-Tend) [4]: significantly prolonged repolarization
2 | CCCCCCCCCCCCCCCC(=O)OC[C@H](COP(=O)([O-])OCC[N+](C)(C)C)OC(=O)CCCCCCCCCCCCCCC [DPPC, dipalmitoylphosphatidylcholine] | – | – | – | – | – | – | – | – | – | – | – | – | – | – | – | – | – | – | – | – | solubility in water [5]: about 10^−10 mol/L
3 | [Mg+2] [Mg^2+] | – | – | – | – | – | – | – | – | – | – | – | – | – | – | – | – | – | – | – | – | decrease in ICaL ([6]; ICaL stimulated by cAMP (beta-adrenergic agonists)): about 63%; decrease in ICaL ([6]; basal conditions): about 26%
4 | O=C(NCC1CCCCN1)c1cc(OCC(F)(F)F)ccc1OCC(F)(F)F (stereo not drawn) [Flecainide, N-(piperidin-2-ylmethyl)-2,5-bis(2,2,2-trifluoroethoxy)benzamide] | −4.4% and −6.0% and −2.6% | −7.2% and −26.5% and −9.6% | 22.3% and 17.5% and 8.6% | 0.1% and −1.3% and 3.5% | −3.5% and −1.6% and −1.4% | −7.1% and −15.7% and −6.3% | −5.9% and −11.2% and −4.7% | −4.3% | −14.5% | 16.1% | 0.7% | −2.2% | −9.7% | −7.3% | 11.4% and −2.3% and −1.9% | 0.4% and −18.8% and −13.6% | 13.3% and 9.7% and 24.6% | 4.4% and 3.3% and 18.2% | 12.6% and 2.1% and 0.1% | 12.8% and −8.0% and −6.9% | pIC50 (Ito): 4.82; Avg QTcF, baseline-normalized post-infusion (Sinclair swine [3]; [11]): 12.7% and −4.7% and −4.6%; Avg ATcV, baseline-normalized post-infusion (Sinclair swine [3]; Treatment B, group mean): 2.4%; Avg HR, baseline-normalized post-infusion (Sinclair swine [3]; Treatment B, group mean): −10.7%; Avg PR, baseline-normalized post-infusion (Sinclair swine [3]; Treatment B, group mean): 15.8%; Avg QRS, baseline-normalized post-infusion (Sinclair swine [3]; Treatment B, group mean): 8.7%; Avg QT, baseline-normalized post-infusion (Sinclair swine [3]; Treatment B, group mean): 4.9%; Avg QTcB, baseline-normalized post-infusion (Sinclair swine [3]; Treatment B, group mean): −0.7%; Avg QTcF, baseline-normalized post-infusion (Sinclair swine [3]; Treatment B, group mean): 1.1%; pEC50 (IK1): 6.40; pIC50 ([7]; read-out: potency for inhibition of RyR2): ~4.70; pIC50 ([7]; value used in O'Hara-Rudy model, read-out: IC50 IRyR): 4.70; unbinding time τoff [8]: ≈ 20.5 sec; patients with paroxysmal atrial fibrillation exhibiting resistance to monotherapy [9]: approximately 30%
